The record followed here is patent publication US12577231B2, “Androgen receptor PROTACS” (GlaxoSmithKline Intellectual Property Development Limited, priority 2023, dated 2026).

Structures are written as SMILES.

The experiment has as its target T1, Androgen Receptor protein in human LnCaP cells (Homo sapiens, UniProt P10275, T878A).
T1 construct: the AR gene was modified, using CRISPR/Cas9 editing, so the expressed AR protein included an 11 amino acid HiBiT tag; endogenous in cells; host or cells: clonal LnCaP derived cell line, endogenous AR gene edited by CRISPR/Cas9
T1 sequence (P10275 1-920 T878A): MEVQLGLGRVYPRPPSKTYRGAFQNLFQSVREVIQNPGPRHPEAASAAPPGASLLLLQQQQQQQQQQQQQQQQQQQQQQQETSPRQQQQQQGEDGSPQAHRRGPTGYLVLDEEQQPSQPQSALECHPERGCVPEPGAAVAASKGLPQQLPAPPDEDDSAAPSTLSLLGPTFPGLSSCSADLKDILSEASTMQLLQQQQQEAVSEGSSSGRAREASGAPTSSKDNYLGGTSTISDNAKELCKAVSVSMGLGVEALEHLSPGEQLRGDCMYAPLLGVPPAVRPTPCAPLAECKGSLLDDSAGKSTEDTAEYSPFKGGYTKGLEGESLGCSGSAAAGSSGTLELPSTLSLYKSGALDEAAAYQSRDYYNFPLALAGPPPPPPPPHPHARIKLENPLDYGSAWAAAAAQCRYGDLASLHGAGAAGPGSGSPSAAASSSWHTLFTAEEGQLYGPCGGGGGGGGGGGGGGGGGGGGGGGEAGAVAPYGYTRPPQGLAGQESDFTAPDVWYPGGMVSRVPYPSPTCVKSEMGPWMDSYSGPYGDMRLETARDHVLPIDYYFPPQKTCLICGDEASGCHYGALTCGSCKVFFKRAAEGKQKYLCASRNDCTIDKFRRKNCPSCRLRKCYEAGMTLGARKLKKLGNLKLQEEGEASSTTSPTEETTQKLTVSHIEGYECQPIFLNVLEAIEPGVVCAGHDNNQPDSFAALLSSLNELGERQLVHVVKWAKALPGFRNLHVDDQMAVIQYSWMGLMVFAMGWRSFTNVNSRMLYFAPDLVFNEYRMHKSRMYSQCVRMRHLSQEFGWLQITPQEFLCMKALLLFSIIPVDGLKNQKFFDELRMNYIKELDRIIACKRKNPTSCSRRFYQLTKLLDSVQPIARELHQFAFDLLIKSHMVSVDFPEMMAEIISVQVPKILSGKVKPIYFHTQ
Briefly: Androgen Receptor Degradation Assay (Nano-Glo HiBiT, LnCaP cells). The class given is cell-based. The following applies: 18 h, HiBiT-tagged AR LnCaP cells, 18 h incubation, fitted curve asymptote maximum of degradation, read-out: mean asymptote max. As for the experimental part:
Degradation of Androgen Receptor protein in human LnCaP cells treated with PROTACs was quantified using the Nano-Glo® HiBiT Lytic Detection System (Promega) in 384 well assay plate format. A clonal LnCaP derived cell line was first established in which the AR gene was modified, using CRISPR/Cas9 editing, so the expressed AR protein included an 11 amino acid HiBiT tag at its amino-terminus. 10 mM DMSO stock solutions of PROTACs were prepared and diluted across an 11 concentration, 3 fold increment range, and 25 nL dispensed into a white opaque bottomed 384 well assay plate (Thermofisher) using an acoustic ECHO dispenser (Labcyte). Cells were grown in cell culture medium (RPMI 1640 supplemented with 15% FBS, penicillin 50U/mL and streptomycin 50 ug/mL (Thermofisher)). For the assay, cells were detached from flask and resuspended with assay medium (FluoroBrite™ DMEM supplemented with 10% heat inactivated FBS, penicillin 50U/mL and streptomycin 50 ug/mL (Thermofisher)). The cell suspension was centrifuged at 400 g for 5 min and the pellet resuspended in assay medium. 25 μL of cell suspension containing 10,000 cells was dispensed into each well of the assay plate containing a serial dilution of test compounds, which was then incubated for 18 h at 37° C./5% CO2. Control wells were included on each assay plate, with assay medium without cells being the no AR remaining 100% effect control, and cells treated with DMSO vehicle only, without PROTAC, the 0% effect control. 25 μL of Nano-Glo® HiBiT lysis buffer supplemented with LgBiT protein and Nano-Glo® substrate (Promega) was added to each well and the plate shaken at 500 rpm for 10 min at room temperature. The intensity of luminescence was measured using a PHERAstar microplate reader (BMG Labtech) and the % AR protein remaining in each well calculated by normalising the raw luminescence value to the above control wells. Parameters corresponding to the potency and efficacy estimates of the PROTACs were obtained from these normalised luminescence values using software (IDBS ActivityBase). These included the DC50 (concentration at which 50% of protein was degraded in M) and the Dmax (maximal degradation, in %) estimates. Two versions of the DC50, called relative DC50 and absolute DC50, were generated. These are the inflection point of a fitted 4 parameter sigmoidal response curve and the interpolated concentration of PROTAC corresponding to 50% of the protein being degraded, respectively. The corresponding pDC50 is reported as −log10(relative […]). The Dmax parameter was the maximum experimentally observed degradation and the asymptote max parameter the fitted response curve asymptote maximum.
On the technique in general: The HiBiT peptide binds its large partner to form an active luciferase.
Regarding `CC1(C)[C@H](NC(=O)c2ccc(N3CCC(CN4CCC(n5ncc6c(N7CCC(=O)NC7=O)cc(F)cc65)CC4)CC3)c(F)c2)C(C)(C)[C@H]1Oc1ccc(C#N)c2ncccc12` [Example 38, N-((1r,3r)-3-((8-Cyanoquinolin-5-yl)oxy)-2,2,4,4-tetramethylcyclobutyl)-4-(4-((4-(4-(2,4-dioxotetrahydropyrimidin-1(2H)-yl)-6-fluoro-1H-indazol-1-yl)piperidin-1-yl)methyl)piperidin-1-yl)-3-fluorobenzamide], the Dmax was not below 50%. The value for `CC1(C)[C@H](NC(=O)c2ccc(N3CCC(CN4CCC(n5ncc6c(N7CCC(=O)NC7=O)nccc65)CC4)CC3)c(F)c2)C(C)(C)[C@H]1Oc1ccc(C#N)c2ncccc12` [Example 39, N-((1r,3r)-3-((8-Cyanoquinolin-5-yl)oxy)-2,2,4,4-tetramethylcyclobutyl)-4-(4-((4-(4-(2,4-dioxotetrahydropyrimidin-1(2H)-yl)-1H-pyrazolo[4,3-c]pyridin-1-yl)piperidin-1-yl)methyl)piperidin-1-yl)-3-fluorobenzamide] was not below 50%; that for `CC1(C)[C@H](NC(=O)c2ccc(N3CCC(CN4CCC(n5ncc6c(N7CCC(=O)NC7=O)ccnc65)CC4)CC3)c(F)c2)C(C)(C)[C@H]1Oc1ccc(C#N)c2ncccc12` [Example 40, N-((1r,3r)-3-((8-Cyanoquinolin-5-yl)oxy)-2,2,4,4-tetramethylcyclobutyl)-4-(4-((4-(4-(2,4-dioxotetrahydropyrimidin-1(2H)-yl)-1H-pyrazolo[3,4-b]pyridin-1-yl)piperidin-1-yl)methyl)piperidin-1-yl)-3-fluorobenzamide] was not below 50%.

As for `CC1(C)[C@H](NC(=O)c2ccc(N3CCC(CN4CCC(n5ncc6c(N7CCC(=O)NC7=O)cc(Cl)cc65)CC4)CC3)c(F)c2)C(C)(C)[C@H]1Oc1ccc(C#N)c2ncccc12` [Example 41, 4-(4-((4-(6-Chloro-4-(2,4-dioxotetrahydropyrimidin-1(2H)-yl)-1H-indazol-1-yl)piperidin-1-yl)methyl)piperidin-1-yl)-/-((1r,3r)-3-((8-cyanoquinolin-5-yl)oxy)-2,2,4,4-tetramethylcyclobutyl)-3-fluorobenzamide], the Dmax was not below 50%. Then `CC1(C)[C@H](NC(=O)c2ccc(N3CCC(CN4CCC(n5ncc6c(N7CCC(=O)NC7=O)cc(C(F)(F)F)cc65)CC4)CC3)c(F)c2)C(C)(C)[C@H]1Oc1ccc(C#N)c2ncccc12` [Example 42, N-((1r,3r)-3-((8-Cyanoquinolin-5-yl)oxy)-2,2,4,4-tetramethylcyclobutyl)-4-(4-((4-(4-(2,4-dioxotetrahydropyrimidin-1(2H)-yl)-6-(trifluoromethyl)-1H-indazol-1-yl)piperidin-1-yl)methyl)piperidin-1-yl)-3-fluorobenzamide], with not below 50%. `CC1(C)[C@H](NC(=O)c2ccc(N3CCC(CN4CCC(n5ncc6c(N7CCC(=O)NC7=O)cccc65)CC4)CC3)c(Cl)c2)C(C)(C)[C@H]1Oc1ccc(C#N)c2ncccc12` [Example 44, 3-Chloro-N-((1r,3r)-3-((8-cyanoquinolin-5-yl)oxy)-2,2,4,4-tetramethylcyclobutyl)-4-(4-((4-(4-(2,4-dioxotetrahydropyrimidin-1(2H)-yl)-1H-indazol-1-yl)piperidin-1-yl)methyl)piperidin-1-yl)benzamide]: the Dmax was not below 50%.

Turning to `CC1(C)[C@H](NC(=O)c2ccc(N3CCC(CN4CC[C@@H](n5ncc6c(N7CCC(=O)NC7=O)cccc65)[C@@H](F)C4)CC3)c(F)c2)C(C)(C)[C@H]1Oc1ccc(C#N)c2ncccc12` [Example 45, N-((1r,3r)-3-((8-Cyanoquinolin-5-yl)oxy)-2,2,4,4-tetramethylcyclobutyl)-4-(4-(((35,4R)-4-(4-(2,4-dioxotetrahydropyrimidin-1(2H)-yl)-1H-indazol-1-yl)-3-fluoropiperidin-1-yl)methyl)piperidin-1-yl)-3-fluorobenzamide], the Dmax was not below 50%. Then `CC1(C)[C@H](NC(=O)c2ccc(N3CCC(CN4CC[C@H](n5ncc6c(N7CCC(=O)NC7=O)cccc65)[C@H](F)C4)CC3)c(F)c2)C(C)(C)[C@H]1Oc1ccc(C#N)c2ncccc12` [Example 46, N-((1r,3r)-3-((8-Cyanoquinolin-5-yl)oxy)-2,2,4,4-tetramethylcyclobutyl)-4-(4-(((3R,4S)-4-(4-(2,4-dioxotetrahydropyrimidin-1(2H)-yl)-1H-indazol-1-yl)-3-fluoropiperidin-1-yl)methyl)piperidin-1-yl)-3-fluorobenzamide], with not below 50%; and `CC1(C)[C@H](NC(=O)c2ccc(N3CCC(CN4CCC(n5ccc6c(N7CCC(=O)NC7=O)ncnc65)CC4)CC3)c(F)c2)C(C)(C)[C@H]1Oc1ccc(C#N)c2ncccc12` [Example 47, N-((1r,3r)-3-((8-Cyanoquinolin-5-yl)oxy)-2,2,4,4-tetramethylcyclobutyl)-4-(4-((4-(4-(2,4-dioxotetrahydropyrimidin-1(2H)-yl)-7H-pyrrolo[2,3-d]pyrimidin-7-yl)piperidin-1-yl)methyl)piperidin-1-yl)-3-fluorobenzamide], with not below 50%. Then `CC1(C)[C@H](NC(=O)c2ccc(N3CCC(O)(CN4CCC(n5ncc6c(N7CCC(=O)NC7=O)cccc65)CC4)CC3)c(F)c2)C(C)(C)[C@H]1Oc1ccc(C#N)c2ncccc12` [Example 48, N-((1r,3r)-3-((8-Cyanoquinolin-5-yl)oxy)-2,2,4,4-tetramethylcyclobutyl)-4-(4-((4-(4-(2,4-dioxotetrahydropyrimidin-1(2H)-yl)-1H-indazol-1-yl)piperidin-1-yl)methyl)-4-hydroxypiperidin-1-yl)-3-fluorobenzamide], with not below 50%; and `CC1(C)[C@H](NC(=O)c2ccc(N3CCC(CN4CCC(n5ncc6c(N7CCC(=O)NC7=O)c(F)ccc65)CC4)CC3)c(F)c2)C(C)(C)[C@H]1Oc1ccc(C#N)c2ncccc12` [Example 50, N-((1r,3r)-3-((8-Cyanoquinolin-5-yl)oxy)-2,2,4,4-tetramethylcyclobutyl)-4-(4-((4-(4-(2,4-dioxotetrahydropyrimidin-1(2H)-yl)-5-fluoro-1H-indazol-1-yl)piperidin-1-yl)methyl)piperidin-1-yl)-3-fluorobenzamide], with not below 50%; and `CC1(C)[C@H](NC(=O)c2ccc(N3CCC(CN4CCC(n5ccc6c(N7CCC(=O)NC7=O)c(F)ccc65)CC4)CC3)c(F)c2)C(C)(C)[C@H]1Oc1ccc(C#N)c2ncccc12` [Example 51, N-((1r,3r)-3-((8-Cyanoquinolin-5-yl)oxy)-2,2,4,4-tetramethylcyclobutyl)-4-(4-((4-(4-(2,4-dioxotetrahydropyrimidin-1(2H)-yl)-5-fluoro-1H-indol-1-yl)piperidin-1-yl)methyl)piperidin-1-yl)-3-fluorobenzamide], with not below 50%.
